The values that follow come from paper PMC5766630, “Non-estrogenic Xanthohumol Derivatives Mitigate Insulin Resistance and Cognitive Impairment in High-Fat Diet-induced Obese Mice” (Scientific Reports, 2018).

For data set [1], the system named is progesterone receptor (PGR) expression in MCF-7 cells. Description: Progesterone receptor (PGR) gene expression in MCF-7 cells, real-time PCR. The class given is cell-based, human. To be noted: 20 h; estradiol 1 and 10 nM; 8-PN, XN, DXN, TXN 0.2, 1 and 5 μM; vs 0.1% ethanol. On the procedure: MCF-7 cells (American Type Culture Collection, Manassas, VA, USA) were cultured in DMEM (Corning Life Sciences, Tewksbury, MA, USA) supplemented with 10% fetal bovine serum (Corning Life Sciences) and 100 μg/ml penicillin/streptomycin (Invitrogen, Carlsbad, CA, USA). For estrogen-free experiments, cells were seeded in phenol-free DMEM (Gibco/Life Technologies, Grand Island, NY, USA) plus 10% charcoal-dextran-treated FBS (Corning Life Sciences) at 5 × 10^5 cells/well of a 6-well plate. […] Total RNA was isolated using TRIzol (Invitrogen) and converted into cDNA using iScript (Bio-Rad, Hercules, CA, USA). Real-time PCR was performed in triplicate on a CFX-96 (Bio-Rad) using primer-probe assays (IDT Technologies, Coralville, IA, USA) and SsoAdvanced Universal Probes Supermix (Bio-Rad) to quantify progesterone receptor (PGR) and GAPDH levels. The ratio of PGR to GAPDH was calculated as 2^−ΔCt PGR/2^−ΔCt GAPDH. Data were analyzed using a one-way ANOVA (p < 0.05 was considered statistically significant) and a post-hoc Tukey’s multiple comparison test. Induction of the progesterone receptor in MCF-7 cells is one of the indices of estrogenicity of flavonoids such as 8-PN[94].
Background: Quantitative PCR measures a nucleic acid by following its amplification.

Data set [2] deals with liver AMPK (pAMPKα/total AMPKα). Put plainly: AMPK activation in liver by Western blot. Particulars: HFD mice, 30 mg/kg/day, 13 weeks, vs control. The class given is in vivo, mouse. On the procedure: Approximately 150 mg of frozen liver and muscle tissues were homogenized in tubes containing RIPA buffer with protease and phosphatase inhibitors plus ceramic beads (1.4 mm Ceramic, Bulk Beads, Fisher Scientific, Pittsburgh, PA, USA) using a Precellys 24 (PEQLAB Biotechnology GmbH, Germany). Liver tissue was homogenized for 1 × 30 sec at 6,500 rpm whereas muscle was homogenized for 3 × 30 sec at 6,500 rpm with 20 sec intervals. The homogenates were centrifuged at 15,700 × g for 10 minutes and aliquots (50 µg of protein) of the supernatant (lysate) were separated by SDS-PAGE using 4–15% MP TGX Gels (Bio-Rad # 4561083) and blotted onto nitrocellulose membranes. Membranes were blocked with 5% nonfat milk for 2 h and incubated with antibodies against pAMPK (Phospho-AMPKα (Thr172) Antibody, cat. no. #2531 Cell Signaling Technology, Danvers, MA, USA), AMPK (AMPKα Antibody, cat. no. #2532 Cell Signaling Technology, Danvers, MA, USA), or β-actin (Santa Cruz Biotechnology) for 1 h or overnight. After a second reaction with secondary antibodies (horseradish peroxidase-conjugated IgG goat antirabbit or goat antimouse antibodies), the protein bands on the nitrocellulose membranes were visualized by enhanced chemiluminescence substrate on a Biorad ChemiDocTM MP Imaging System (BioRad Laboratories Inc, Hercules, CA, USA). Band intensities were quantified by densitometry using Image J software.
On the technique in general: A western blot detects proteins with antibodies after separation by electrophoresis.

For a further data set, the system named is HepG2 cells. Description: MTT cell viability assay, HepG2. The class given is cell-based, human. Particulars: 24 h exposure, vs vehicle-treated control cells. The method, then: (§1) For cell viability experiments using the MTT assay, mouse C2C12 skeletal muscle myoblasts (ATCC; Manassas, VA, USA) and the human hepatocyte cell line, HepG2 (ATCC; Manassas, VA, USA), were plated in 96-well plates at a density of 4,000 to 10,000 cells per well in 200 μL of DMEM medium supplemented with 10% FBS, 1% glutamine, 1 mM of sodium pyruvate, 100 units/mL penicillin, and 100 μg/mL streptomycin. After incubating 48 h, the medium was removed and the cells were treated with fresh solutions of various concentrations of XN, DXN or TXN in phenol red-free DMEM plus supplements. The final concentrations of XN, DXN, TXN were 1, 2, 5, 8, 10, 25, or 50 μM, in quadruplicate wells. The plates were then incubated for 1 h (for C2C12) or 24 h for HepG2. After removing the medium, the cells were incubated for 2 h with a 0.5 mg/mL solution of MTT in phenol red-free culture medium. After removing the medium and adding a solution of acidified isopropanol to each well, the absorbance of each well was measured at 570 nm by using a spectrometer (SpectraMax 190, Molecular Devices, Sunnyvale, CA, USA). Cell viability of compound-treated cells was calculated as % absorbance of vehicle-treated control cells (Supplementary Fig. S1a and S1b).

The target of data set [3] is T1, full-length purified human estrogen receptor ERα (Homo sapiens, UniProt P03372).
T1 construct: full-length purified human estrogen receptors ERα and ERβ
T1 sequence (P03372 1-595): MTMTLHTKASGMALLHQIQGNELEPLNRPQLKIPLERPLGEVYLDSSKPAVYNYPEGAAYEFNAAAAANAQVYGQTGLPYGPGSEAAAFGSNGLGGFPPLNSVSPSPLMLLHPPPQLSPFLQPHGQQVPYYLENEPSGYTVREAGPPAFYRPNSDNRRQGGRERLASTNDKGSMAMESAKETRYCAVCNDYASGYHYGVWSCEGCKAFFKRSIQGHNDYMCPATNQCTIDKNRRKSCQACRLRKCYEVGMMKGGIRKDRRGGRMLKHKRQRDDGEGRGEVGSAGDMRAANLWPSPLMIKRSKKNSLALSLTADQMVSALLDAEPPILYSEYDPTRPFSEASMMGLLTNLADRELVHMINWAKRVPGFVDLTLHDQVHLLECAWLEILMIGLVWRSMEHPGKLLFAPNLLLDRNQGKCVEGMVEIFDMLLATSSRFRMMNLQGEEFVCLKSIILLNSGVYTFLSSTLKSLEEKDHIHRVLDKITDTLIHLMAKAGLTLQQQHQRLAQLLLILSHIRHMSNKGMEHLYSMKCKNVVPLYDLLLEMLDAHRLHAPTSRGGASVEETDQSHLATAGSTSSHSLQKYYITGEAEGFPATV
Description: ERα competitive radiometric binding assay. Particulars: RBA = IC50[estradiol]/IC50[compound] × 100, estradiol = 100; 2 nM [3H]-estradiol tracer, 18–24 h at 0 °C. The method, then:
The receptors and ligands were incubated for 18–24 h at 0 °C and then the receptor–ligand complexes separated using hydroxyapatite (BioRad, Hercules, CA, USA).

Data set [4] relates to C2C12 skeletal muscle myoblasts. Put plainly: MTT cell viability assay, C2C12. Particulars: 1 h exposure, up to 50 μM. The class given is cell-based, mouse. On the procedure: as §1

Take `COc1cc(O)c(CC=C(C)C)c(O)c1C(=O)CCc1ccc(O)cc1` [DXN, α,β-Dihydroxanthohumol]: the “induction of PGR expression” value in data set [1] was “do not induce”. The “Increase of liver AMPK activation (phosphorylated AMPKα/total AMPKα)” value (“Increase of liver AMPK activation” below) in data set [2] is on record as “did not cause a significant activation”. The “HepG2 cell viability (MTT), 1–25 µM” value in the data set on HepG2 cells was “did not alter cell viability”. In data set [3], the “RBA ERα (relative binding affinity)” value was determined as 0.0029 ± 0.0007. Moreover, the “C2C12 cell viability (MTT)” value in data set [4] was “did not significantly affect cell viability”.

With `COc1cc(O)c(CCC(C)C)c(O)c1C(=O)CCc1ccc(O)cc1` [TXN, tetrahydroxanthohumol], the “induction of PGR expression” value in data set [1] is reported as “do not induce”. The “Increase of liver AMPK activation” value in data set [2] was “did not cause a significant activation”. The “HepG2 cell viability (MTT), 1–25 µM” value in the data set on HepG2 cells is “did not alter cell viability”. Besides, the “RBA ERα (relative binding affinity)” value in data set [3] turned out to be 0.0033 ± 0.001. Further, the “C2C12 cell viability (MTT)” value in data set [4] is on record as “did not significantly affect cell viability”.

Consider `COc1cc(O)c(CC=C(C)C)c(O)c1C(=O)/C=C/c1ccc(O)cc1` [XN, 3′-[3,3-dimethylallyl]-2′,4′,4-trihydroxy-6′-methoxychalcone], for which the “induction of PGR expression” value in data set [1] is recorded as “do not induce”. For the same compound, the “Increase of liver AMPK activation” value in data set [2] is reported as 24%. Also, in the data set with HepG2 cells, the “HepG2 cell viability (MTT), 1–25 µM” value was “did not alter cell viability”. Moreover, the “RBA ERα (relative binding affinity)” value in data set [3] amounted to 0.0021 ± 0.0003. The “C2C12 cell viability (MTT)” value in data set [4] is “did not significantly affect cell viability”.
